Test results taken from US5496805A, “Inhibitors of neutral endopeptidase” (priority 1990, dated 1996).
Where a name gives a salt, the structure may show the parent alone. Square brackets hold non-standard residues; d marks the D form. Peptide text beside a SMILES is read from it. Mpa = O=C(O)CCS

target: T1, neutral endopeptidase (Rattus norvegicus, UniProt P07861); assay: biochemical; conditions: enzyme purified from rat kidney; Dns-Gly-Phe-Arg 0.5 mM; pH 7.5; 37°, 30 minutes; inhibitor preincubated 10 minutes
T1 sequence (P07861 1-750): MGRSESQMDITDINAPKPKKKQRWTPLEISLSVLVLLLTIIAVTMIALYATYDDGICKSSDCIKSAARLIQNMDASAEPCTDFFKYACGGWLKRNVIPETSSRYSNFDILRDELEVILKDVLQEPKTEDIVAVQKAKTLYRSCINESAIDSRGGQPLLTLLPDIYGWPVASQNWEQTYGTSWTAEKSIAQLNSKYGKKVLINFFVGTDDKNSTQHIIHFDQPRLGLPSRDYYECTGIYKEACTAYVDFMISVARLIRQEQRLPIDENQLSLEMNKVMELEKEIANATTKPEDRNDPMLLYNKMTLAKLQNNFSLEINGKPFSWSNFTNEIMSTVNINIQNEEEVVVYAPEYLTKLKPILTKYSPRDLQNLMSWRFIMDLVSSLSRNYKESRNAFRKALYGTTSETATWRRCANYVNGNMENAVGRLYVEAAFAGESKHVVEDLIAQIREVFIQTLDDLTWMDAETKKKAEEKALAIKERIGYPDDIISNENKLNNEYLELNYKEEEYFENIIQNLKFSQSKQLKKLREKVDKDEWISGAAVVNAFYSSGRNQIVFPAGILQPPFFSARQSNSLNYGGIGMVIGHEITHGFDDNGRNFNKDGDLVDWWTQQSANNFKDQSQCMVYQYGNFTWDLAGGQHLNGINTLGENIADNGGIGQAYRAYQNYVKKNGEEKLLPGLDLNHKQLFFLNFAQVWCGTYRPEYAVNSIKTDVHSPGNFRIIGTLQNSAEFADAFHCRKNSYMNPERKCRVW
Description: The in vitro neutral endopeptidase activity is determined using a fluorometric assay procedure. The assay is based upon the cleavage of the fluorescent dansylated tripeptide Dns-Gly-Phe-Arg to form Dns-Gly. The latter is extracted from the acidified mixture by ethyl acetate and is strongly fluorescent.
The incubation mixture employed for the assay contains the substance Dns-Gly-Phe-Arg (0.5 mM), tris(hydroxymethyl)aminomethane -HCl buffer (pH 7.5, 50 mM), an enzyme preparation in 0.05% Triton X-100, and water or inhibitor diluted to a final volume of 0.25 ml. The enzyme preparation is purified from rat kidney according to the procedure described by Almenoff et al. in Biochemistry Vol. 22, p. 590-599 (1983). The inhibitor is preincubated for 10 minutes with the enzyme preparation and buffer before the reaction is initiated by the addition of the substrate. Incubation is carried out at 37° for 30 minutes and the reaction is stopped by the addition of 0.25 ml. 1N HCl and extraction of the Dns-Gly product into 1.5 ml. of ethyl acetate. Relative fluorescent intensity (RFI) of the ethyl acetate extract is measured using a Ferrand Spectofluorometer at excitation and emission wavelengths of 342 and 508 nm., respectively, corrected for the RFI of a zero-time control, and compared with assays lacking inhibitor.
Runs are made at different concentrations of test compound and by use of a mathematical model the IC50 is determined. The IC50 is the concentration of test compound that inhibits activity of the enzyme by 50%.

IC50 | SMILES
740 nM | O=C(CCS)N[C@@H](Cc1ccccc1)C(=O)N[C@@H](Cc1ccccc1)C(=O)O [Example 62, N-[N-(3-Mercapto-1-oxopropyl)-L-phenylalanyl]-L-phenylalanine] ([Mpa]-Phe-Phe-OH)
20 nM | CCCC[C@H](NC(=O)C(CS)Cc1ccccc1)C(=O)O (single isomer, unassigned; isomer b) [Example 30, N-[2,(Mercaptomethyl)-1-oxo,3-phenylpropyl]-L-norleucine (isomer B)]
950 nM | CC(C)C[C@H](NC(=O)C(Cc1ccccc1)CP(C)(=O)O)C(=O)O (stereo partly drawn) [Example 74, N-[2-[(hydroxymethylphosphinyl)methyl]-1-oxo-3-phenylpropyl]-L-leucine, dilithium salt]
290 nM | N=C(N)NCCC[C@H](NC(=O)C(CS)Cc1ccccc1)C(=O)O (mixture of isomers) [Example 4, N-[DL-2-(Mercaptomethyl)-1-oxo-3,-phenylpropyl]-L-arginine]
8.9 nM | O=C(N[C@@H](Cc1ccccc1)C(=O)O)C(CS)Cc1ccccc1 (single isomer, unassigned; isomer b) [Example 32, N-[2-(Mercaptomethyl-1-oxo-3-phenylpropyl]-L-phenylalanine (isomer B)]
14 nM | CC(CS)C(=O)N[C@@H](Cc1ccccc1)C(=O)O (mixture of isomers) [Example 17, (±)-N-(3-Mercapto-2-methyl-1-oxopropyl)-L-phenylalanine, 1,1-dimethylethanamine salt (1:1)]
6.7 nM | CSCC[C@H](NC(=O)C(CS)Cc1ccccc1)C(=O)O (mixture of isomers) [Example 22, (±)-N-[2-(Mercaptomethyl)-1-oxo-3-phenylpropyl]-L -methionine]
9 nM | CC(C)CC(CS)C(=O)N[C@@H](Cc1ccccc1)C(=O)O (mixture of isomers) [Example 33, (±)-N-[2-(Mercaptomethyl)-4-methyl-1-oxopentyl]-L-phenylalanine]
940 nM | O=C(O)CCCCCCNC(=O)[C@H](Cc1ccccc1)N[C@@H](Cc1ccccc1)C(=O)O [Example 79, 7-[[N-[(S)-l-Carboxy-2-phenylethyl]-L-phenylalanyl]amino]heptanoic acid]
18 nM | O=C(O)C[C@H](Cc1ccccc1)NC(=O)C(CS)Cc1ccccc1 (single isomer, unassigned; isomer a) [Example 47]
47 nM | O=C(N[C@@H](Cc1ccc(O)c(O)c1)C(=O)O)C(CS)Cc1ccccc1 (mixture of isomers) [Example 24, (±)-3-Hydroxy-N-[2-(mercaptomethyl)-1-oxo-3-phenylpropyl]-L-tyrosine, 1,1-dimethylethanamine salt (1:1)]
120 nM | O=C(CS)N[C@@H](Cc1ccccc1)C(=O)N[C@@H](Cc1ccccc1)C(=O)O [Example 61, N-[N-(Mercaptoacetyl)-L-phenylalanyl]-L-phenylalanine]
13 nM | CC(CS)C(=O)N[C@@H](Cc1ccc(O)cc1)C(=O)O (mixture of isomers) [Example 6, N-(DL-3-Mercapto-2,methyl1-oxopropyl)-L-tyrosine]
52 nM | O=C(O)C[C@H](Cc1ccccc1)NC(=O)C(CS)Cc1ccccc1 (single isomer, unassigned; isomer b) [Example 48]

Continued, molecule first:

SMILES | IC50
CC(C)CC(CS)C(=O)N[C@@H](C)C(=O)O (single isomer, unassigned; isomer a) [Example 12, N-[2-(Mercaptomethyl)-4-methyl-1-oxopentyl]-L-alanine (isomer A)] | 3.3 nM
O=C(O)CCCCCCCNC(=O)C(CS)Cc1ccccc1 (centres unmarked) [Example 51, 8-[[2-(Mercaptomethyl)-1-oxo-3-phenylpropyl]amino]-octanoic acid] | 20 nM
CC(C)[C@H](NC(=O)CS)C(=O)N[C@@H](Cc1c[nH]c2ccccc12)C(=O)O [lithium salt] | 680 nM
CC(CS)C(=O)N[C@@H](CO)C(=O)O (mixture of isomers) [Example 21, (±)-N-(3-Mercapto-2-methyl-1-oxopropyl)-L-serine, N-cyclohexylcyclohexamine salt(1:1)] | 280 nM
C[C@@H](CS)C(=O)N[C@@H](Cc1ccc(O)c(O)c1)C(=O)O [Example 15, 3-Hydroxy-N-(R-3-mercapto-2-methyl-1-oxopropyl)-L-tyrosine] | 30 nM
O=C(O)CCCNC(=O)C(CS)Cc1ccccc1 (racemic) [Example 46, (±)-4-[[2-(Mercaptomethyl)-1-oxo-3-phenylpropyl]amino]butanoic acid] | 6 nM
O=C(O)CCCCCCCCCCNC(=O)C(CS)Cc1ccccc1 (racemic) [Example 53, (±)-11-[[2-(Mercaptomethyl)-1-oxo-3-phenylpropyl]amino]undecanoic acid] | 76 nM
CSCC[C@H](NC(=O)C(C)CS)C(=O)O (mixture of isomers) [Example 23, (±)-N-(3-Mercapto-2-methyl-1-oxopropyl)-L-methionine, 1,1-dimethylethanamine salt (1:1)] | 49 nM
CC(CS)C(=O)NCC(=O)O (racemic) [Example 16, (±)-N-(3-Mercapto-2-methyl-1-oxopropyl)glycine] | 370 nM
CC(CS)C(=O)N[C@@H](Cc1c[nH]c2ccccc12)C(=O)O (mixture of isomers) [Example 5, N-(DL-3-Mercapto-2-methyl-1-oxopropyl)-L-tryptophan] | 20 nM
CC(C)C[C@H](NC(=O)C(C)CS)C(=O)O (mixture of isomers) [Example 18, (±)-N-(3-Mercapto-2-methyl-1-oxopropyl)-L-leucine, 1,1-dimethylethanamine salt (1:1)] | 69 nM
CC(C)CC(CS)C(=O)NCC(=O)O (racemic) [Example 8, (±)-N-[2-(Mercaptomethyl)-4-methyl-1-oxopentyl]-glycine] | 280 nM
CC(C)CC(CS)C(=O)N[C@@H](C)C(=O)N[C@@H](CCCN=C(N)N)C(=O)O (single isomer, unassigned; isomer a) [Example 56, N-[N-[2-(Mercaptomethyl)-4-methyl-1-oxopentyl]-L-alanyl]-L-arginine (isomer A)] | 23 nM
CC(C)CC(CS)C(=O)NCC(=O)N[C@@H](CCC(N)=O)C(=O)O (mixture of isomers) [Example 59, (±)-N^2-[N-[2-(Mercaptomethyl)-4-methyl-1-oxopentyl]-glycyl]-L-glutamine, ammonium salt (1:1)] | 330 nM
CC(C)CC(CS)C(=O)N[C@@H](C)C(=O)N[C@@H](CCCN=C(N)N)C(=O)O (single isomer, unassigned; isomer b) [Example 57, N-[N-[2-(Mercaptomethlyl)-4-methyl-1-oxopentyl]-L-alanyl]-L-arginine (isomer B)] | 28 nM
O=C(O)CCNC(=O)C(Cc1ccccc1)CP(=O)(O)O (centres unmarked) [Example 75, 3-[[1-Oxo-2-(phenylmethyl)-3-phosphonopropyl]amino]propanoic acid] | 40 nM
CC(C)CC(CS)C(=O)N[C@@H](CCCNC(=N)N)C(=O)O (mixture of isomers) [Example 11, (±)-N^2-[2-(Mercaptomethyl)-4-methyl-1-oxopentyl]-L-arginine] | 170 nM
CC(C)CC(CS)C(=O)N[C@@H](C)C(=O)O (single isomer, unassigned; isomer b) [Example 13, N-[2-(Mercaptomethyl)-4-methyl-1-oxopentyl]-L-alanine (isomer B)] | 2.2 nM
